Here are results for two molecules from PMC12021657, “Rapid traversal of vast chemical space using machine learning-guided docking screens” (Nature Computational Science, 2025).

Read-outs that look alike come from different tables or passages of the source.

Experiment [1] deals with T1, Human D2R (Homo sapiens, UniProt P14416).
T1 construct: expressed in transfected cells
The experiment can be described thus: Human D2R competition radioligand binding ([3H]-spiperone, CHO-D2R #S20 membranes). As to conditions: for D2R radioligand displacement at 10 µM (%) / inhibition at 10 µM: 10 µM compound, mean ± SEM of two technical replicates; for inhibition at 10 µM: 2 h, read-out: D2R radioligand displacement at 10 µM (%); for Ki: mean ± SEM from three independent experiments. The method, then:
Screening compounds (Supplementary Tables 10 and 12) were purchased from Enamine (compound purity >90%, which was confirmed by liquid chromatography−mass spectrometry and ^1H NMR spectroscopy for identified ligands; Supplementary Figs. 19–30). Human D2R competition binding experiments were carried out in polypropylene 96-well plates. Each well contained 20 µg of membranes from a CHO-D2R #S20 cell line (protein concentration of 4,322 µg ml^−1), 1.5 nM [^3H]-spiperone (54.3 Ci mmol^−1, 1 mCi ml^−1, PerkinElmer NET1187250UC) and the compound studied. Non-specific binding was determined in the presence of 10 µM sulpiride (Sigma Aldrich S8010). The reaction mixture (250 µl per well) was incubated at 25 °C for 120 min, after which 200 µl was transferred to a GF/C 96-well plate (Millipore) pretreated with 0.5% PEI and treated with binding buffer (50 mM Tris-HCl, 1 mM EDTA, 5 mM MgCl2, 5 mM KCl, 120 mM NaCl, pH 7.4). The reaction mixture was filtered and washed 4 times with 250 µl wash buffer (50 mM Tris-HCl, 0.9% NaCl, pH 7.4) before the addition of 30 μl Universol. The final measurement was performed in a microplate beta scintillation counter (Microbeta Trilux, PerkinElmer). Human A2AR competition binding experiments were carried out in a multiscreen GF/C 96-well plate (Millipore) pretreated with binding buffer (Tris-HCl 50 mM, EDTA 1 mM, MgCl2 10 mM, 2 U ml^−1 adenosine deaminase, pH 7.4). Each well was incubated with 5 μg of membranes from the HeLa-A2A cell line and prepared in our laboratory (lot A003/14-04-2019, protein concentration 2,058 μg ml^−1), 1 nM [^3H]-ZM241385 (50 Ci mmol^−1, 1 mCi ml^−1, ARC-ITISA 0884), and the compounds studied and standards. Non-specific binding was determined in the presence of NECA 50 μM (Sigma E2387). The reaction mixture (total volume of 200 μl per well) was incubated at 25 °C for 30 min, then filtered and washed 4 times with 250 μl wash buffer (Tris-HCl 50 mM, EDTA 1 mM, MgCl2 10 mM, pH 7.4), and measured in a microplate beta scintillation counter (Microbeta Trilux, PerkinElmer). Unless stated otherwise, three independent experiments were carried out to calculate Ki values.

The target of experiment [2] is T1, Human D2R. The experiment can be described thus: Human D2R functional cAMP assay (HTRF, CHO-D2 #S20 cells, forskolin). The format is cell-based. As to conditions: for functional character at D2R: cAMP assay; for Emax: read-out: Emax (maximal effect). The method, then: Human D2R activity was measured by determining the amount of cAMP produced. Human D2R functional experiments were carried out in a CHO-D2 #S20 cell line. Five-thousand cells were seeded in 30 μl of Optimem (Invitrogen 11058) + 500 μM IBMX (Sigma 17018) on a 96-well black-and-white isoplate (PerkinElmer 6005030). Test compounds and dopamine were added in their corresponding wells and incubated for 10 min at 37 °C with gentle stirring (150 r.p.m.). Then, 10 µM forskolin (Sigma 17018) was added and incubated for 5 min at 37 °C with gentle stirring (150 r.p.m.). Reagents from the kit (#CISBIO 62AM4PEC) were added and incubated for 1 h at room temperature with gentle stirring (90 r.p.m.) and protected from light. HTRF (excitation wavelength: 320 nm; emission wavelengths: 620–665 nm) from each well was measured using a Tecan Infinite M1000 Pro. Two independent experiments were carried out to calculate EC50 and Emax values.

T1 sequence (P14416 whole entry): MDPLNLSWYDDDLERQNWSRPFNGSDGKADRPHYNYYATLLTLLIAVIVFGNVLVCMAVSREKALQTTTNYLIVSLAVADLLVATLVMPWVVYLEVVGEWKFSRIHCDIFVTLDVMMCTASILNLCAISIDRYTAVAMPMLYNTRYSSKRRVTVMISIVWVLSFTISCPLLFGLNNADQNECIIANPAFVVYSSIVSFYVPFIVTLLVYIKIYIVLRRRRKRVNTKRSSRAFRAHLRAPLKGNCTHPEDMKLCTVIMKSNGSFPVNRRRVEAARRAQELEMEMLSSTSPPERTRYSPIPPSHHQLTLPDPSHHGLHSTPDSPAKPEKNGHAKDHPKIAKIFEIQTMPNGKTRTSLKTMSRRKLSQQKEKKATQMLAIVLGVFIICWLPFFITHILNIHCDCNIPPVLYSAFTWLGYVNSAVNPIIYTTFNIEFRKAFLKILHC

`Fc1ccc(-n2ccc(CCNC3Cc4ccccc4C3)n2)cc1` [Compound 1, c1ccc2c(c1)CC(C2)NCCc3ccn(n3)c4ccc(cc4)F]: the “D2R radioligand displacement at 10 µM (%)” value at Human D2R [1] (listed as Z1441695252) came out at 59 ± 1%. At Human D2R [1], the inhibition at 10 µM worked out at 59 ± 1% and the Ki is 3 µM. Also, on Human D2R [2] (CHO-D2 #S20 cells, two independent experiments, read-out: EC50 (D2R-mediated changes in intracellular cAMP)), the EC50 turned out to be 10 µM. On Human D2R [2], the “functional character at D2R” value is reported as “full agonists” and the Emax stood at 99%.
`Cc1cnccc1CCN1CCC(Oc2ccccc2Cl)C1` (stereo not drawn) [Compound 2, Cc1cnccc1CCN2CCC(C2)Oc3ccccc3Cl]: the “D2R radioligand displacement at 10 µM (%)” value at Human D2R [1] (listed as Z2436421891) came out at 56 ± 2%. On Human D2R [1], the inhibition at 10 µM came out at 56 ± 2% and the Ki stood at 3.8 µM. Also, at Human D2R [2], the EC50 amounted to 14 µM, the “functional character at D2R” value is “full agonists” and the Emax was 100%.
